Measurements as given in patent US8809336B2, “Ortho-condensed pyridine and pyrimidine derivatives (e.g., purines) as protein kinases inhibitors” (Astex Therapeutics Limited, priority 2004, dated 2014).
Read-outs that look alike come from different tables or passages of the source.

Experiments:
PKB-PIF fusion protein = target: T1, PKB-PIF fusion protein (Homo sapiens, UniProt P31751); test: Measurement of PKB kinase inhibitory activity (IC50), 33P-ATP phosphocellulose filter assay; assay type: biochemical
T1 construct: PIF (fusion partner); made in house
T1 sequence (P31751 with tags, fused parts or gaps limits assumed): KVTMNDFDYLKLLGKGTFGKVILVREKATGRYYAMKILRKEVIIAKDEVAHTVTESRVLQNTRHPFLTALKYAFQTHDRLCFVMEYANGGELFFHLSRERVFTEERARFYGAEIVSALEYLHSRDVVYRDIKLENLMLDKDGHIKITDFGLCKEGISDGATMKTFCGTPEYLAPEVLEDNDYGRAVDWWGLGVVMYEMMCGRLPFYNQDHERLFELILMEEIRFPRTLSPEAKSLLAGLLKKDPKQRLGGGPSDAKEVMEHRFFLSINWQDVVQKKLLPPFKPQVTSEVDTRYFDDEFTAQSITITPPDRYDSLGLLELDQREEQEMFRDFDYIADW
Description: The inhibition of protein kinase B (PKB) activity by compounds can be determined essentially as described by Andjelkovic et al. (Mol. Cell. Biol. 19, 5061-5072 (1999)) but using a fusion protein described as PKB-PIF and described in full by Yang et al (Nature Structural Biology 9, 940-944 (2002)). […] A final concentration of 0.6 nM enzyme is used in a buffer that includes 20 mM MOPS pH 7.2, 30 μM ATP/γ^33P-ATP and 25 μM substrate.
Compounds are added in DMSO solution to a final DMSO concentration of 2.5%. The reaction is allowed to proceed for 20 minutes before addition of excess orthophosphoric acid to quench activity. The reaction mixture is transferred to a phosphocellulose filter plate where the peptide binds and the unused ATP is washed away. After washing, scintillant is added and the incorporated activity measured by scintillation counting.
The % inhibition of the PKB activity is calculated and plotted in order to determine the concentration of test compound required to inhibit 50% of the PKB activity (IC50).

PKA catalytic domain = target: T2, PKA catalytic domain (Homo sapiens, UniProt P17612); test: Measurement of PKA kinase inhibitory activity (IC50), 33P-ATP filter plate assay; assay type: biochemical
T2 construct: using the PKA catalytic domain from Upstate Biotechnology (#14-440); purchased Upstate Biotechnology 14-440
Description: A final concentration of 1 nM enzyme is used in a buffer that includes 20 mM MOPS pH 7.2, 40 μM ATP/γ^33P-ATP and […] substrate. Compounds are added in dimethylsulphoxide (DMSO) solution to a final DMSO concentration of 2.5%. The reaction is allowed to proceed for 20 minutes before addition of excess orthophosphoric acid to quench activity. Unincorporated γ^33P-ATP is then separated from phosphorylated proteins on a Millipore MAPH filter plate. The plates are washed, scintillant is added and the plates are then subjected to counting on a Packard Topcount.

[1] = 0.6 nM enzyme, 30 μM ATP, 25 μM AKTide-2T substrate, 20 minutes, read-out: IC50, inhibition of PKB activity
[2] = 1 nM enzyme, 40 μM ATP, 20 minutes, read-out: IC50, inhibition of PKA activity

NCC1(c2cccc(Cl)c2)CCN(c2ncnc3[nH]ccc23)CC1 [Example 26, C-[4-(3-Chlorophenyl)-1-(7H-pyrrolo[2,3-d]pyrimidin-4-yl)piperidin-4-yl]methylamine]
IC50 (PKB-PIF fusion protein; [1]): < 10 µM | IC50 (PKA catalytic domain; [2]): < 10 µM

NCC1(c2ccc(Cl)c(Cl)c2)CCN(c2ncnc3[nH]ccc23)CC1 [Example 28, C-[4-(3,4-Dichlorophenyl)-1-(7H-pyrrolo[2,3-d]pyrimidin-4-yl)piperidin-4-yl]methylamine]
IC50 (PKB-PIF fusion protein; [1]): < 10 µM | IC50 (PKA catalytic domain; [2]): < 10 µM

NCC1(c2ccc(OC(F)(F)F)cc2)CCN(c2ncnc3[nH]cnc23)CC1 [Example 31, C-[1-(9H-Purin-6-yl)-4-(4-trifluoromethoxyphenyl)piperidin-4-yl]methylamine]
IC50 (PKB-PIF fusion protein; [1]): < 10 µM | IC50 (PKA catalytic domain; [2]): < 10 µM

NCC1(c2ccc(C(F)(F)F)cc2)CCN(c2ncnc3[nH]ccc23)CC1 [Example 32, C-[1-(7H-Pyrrolo[2,3-d]pyrimidin-4-yl)-4-(4-trifluoromethylphenyl)piperidin-4-yl]methylamine]
IC50 (PKB-PIF fusion protein; [1]): < 10 µM | IC50 (PKA catalytic domain; [2]): < 10 µM

COc1ccc(C2(CN)CCN(c3ncnc4[nH]ccc34)CC2)cc1 [Example 38, C-[4-(4-Methoxyphenyl)-1-(7H-pyrrolo[2,3-d]pyrimidin-4-yl)piperidin-4-yl]methylamine]
IC50 (PKB-PIF fusion protein; [1]): < 10 µM | IC50 (PKA catalytic domain; [2]): < 10 µM

NCC1(c2ccc(OCc3ccccc3)cc2)CCN(c2ncnc3[nH]ccc23)CC1 [Example 40, C-[4-(4-Benzyloxyphenyl)-1-(7H-pyrrolo[2,3-d]pyrimidin-4-yl)piperidin-4-yl]methylamine]
IC50 (PKB-PIF fusion protein; [1]): < 10 µM | IC50 (PKA catalytic domain; [2]): < 10 µM

CNCC1(c2ccc(Cl)cc2)CCN(c2ncnc3[nH]ccc23)CC1 [Example 42, [4-(4-Chloro-phenyl)-1-(7H-pyrrolo[2,3-d]pyrimidin-4-yl)-piperidin-4-ylmethyl]-methyl-amine]
IC50 (PKB-PIF fusion protein): < 10 µM | IC50 (PKA catalytic domain): < 10 µM

CN(C)C1(Cc2ccc(Cl)cc2)CCN(c2ncnc3[nH]ccc23)CC1 [Example 44, [4-(4-Chlorobenzyl)-1-(7H-pyrrolo[2,3-d]pyrimidin-4-yl)-piperidin-4-yl]-dimethylamine]
IC50 (PKB-PIF fusion protein; [1]): < 10 µM | IC50 (PKA catalytic domain; [2]): < 10 µM
